# Measured values from patent US10759865B2, “Treatment of diabetes mellitus” (priority 2017, dated 2020).
# Structures can show the parent of a compound that is named as a salt.
# Tested on: patient diagnosed with IDDM
# Experiment: treatment of a IDDM patient, blood IDDM markers over time
# Format: in vivo, human
# Parameters: Insulin Auto Ab (<0.4) / IA2 Ab (Islet cell Ab Screen) (<0.8) / Glucose / Insulin (2-19.6) / HgbA1C / GAD-65 (<5): unit not given here
# Experimental: A patient diagnosed with IDDM was treated with 8 units of exogenous long-acting insulin per day (administered in the evening) and 1 unit of short-acting insulin per 6 grams of carbohydrate food intake (administered before each meal).
# Specific stimulation high-carb diet was introduced occasionally to monitor the patient's pancreatic ability to respond to the glycemic demands.
# Each IVIG dose was administered in one continuous infusion session. From week 16 to week 42, the patient was also treated with alpha one antitrypsin.
# Throughout the patient's treatment, the patient's blood was drawn at the time points indicated in Tables 1-2 below, and analyzed by established testing laboratories with respect to standard IDDM blood parameters (see Tables 1-2, top row of each table listing the markers assayed; the numerical values in parenthesis after some of the markers indicate normal reference levels).
# The patient was dosed at 750 mg intravenously on weeks 87, 88, 89 and 90.
# Tables 1 and 2 describe the same treatment but include data points with respect to different markers tested.
# [1] = week 19, 8 mg BID, also alpha one antitrypsin
# [2] = week 22, 8 mg BID, also alpha one antitrypsin
# [3] = week 25, 8 mg BID, also alpha one antitrypsin
# [4] = week 26, 16 mg BID, also alpha one antitrypsin
# [5] = week 29, 16 mg BID, also alpha one antitrypsin
# [6] = week 30, 16 mg BID, also alpha one antitrypsin
# [7] = week 36, 16 mg BID, also alpha one antitrypsin
# [8] = week 47, 16 mg BID, IVIG 2, 1, 1 mg/Kg in week 44
# [9] = week 50, 16 mg BID, IVIG weeks 44, 47.5
# [10] = week 53, 16 mg BID, IVIG weeks 44, 47.5, 50.5
# [11] = week 57, 16 mg BID, IVIG weeks 44-54
# [12] = week 61, 16 mg BID, IVIG weeks 44-54
# [13] = week 66, 16 mg BID, IVIG weeks 44-54
# [14] = week 70, 16 mg BID, IVIG weeks 44-54
# [15] = week 75, 16 mg BID, IVIG weeks 44-54
# [16] = week 79, 5 mg QAM & 10 mg QHS, IVIG weeks 44-54
# [17] = week 82.5, 10 mg BID, IVIG weeks 44-54
# [18] = week 87.5, 10 mg BID, IVIG 2, 1, 1 gm/Kg week 86, Rituxan 750 mg iv week 87
# [19] = week 91.25, 10 mg BID, IVIG weeks 86, 89, Rituxan 750 mg iv weeks 87-90
# [20] = week 92.25, 10 mg BID, IVIG weeks 86, 89, Rituxan 750 mg iv weeks 87-90
# [21] = week 99.25, 10 mg BID, IVIG weeks 86, 89, Rituxan 750 mg iv weeks 87-90
structure (smiles),measurement,setting,value
C[C@@H]1CCN(C(=O)CC#N)C[C@@H]1N(C)c1ncnc2[nH]ccc12 [Tofacitinib],overall weight and muscle mass,about 10 months post initiation of tofacitinib treatment,gained overall weight and muscle mass
same,auto-antibody blood titers,"about 10 months post initiation, tofacitinib before IVIG",no further change
same,combination effect of tofacitinib treatment and IVIG treatment,"human, in vivo",synergistic effect
same,need for short-acting insulin,"starting three days post initiation, 5 mg twice-daily (free base)",did not receive any short-acting insulin
same,need for exogenous insulin,"starting three weeks post initiation, 5 mg twice-daily (free base)",did not receive any exogenous insulin
same,pancreatic islet-cell auto-antibodies and anti-insulin auto-antibodies,upon treatment with tofacitinib (Table 1),reduction
"C[C@@H]1CCN(C(=O)CC#N)C[C@@H]1N(C)c1ncnc2[nH]ccc12 [tofacitinib citrate, (3R,4R)-4-methyl-3-(methyl-7H-pyrrolo[2,3-d]pyrimidin-4-ylamino)-β-oxo-1-piperidinepropanenitrile, 2-hydroxy-1,2,3-propanetricarboxylate (1:1)]",C-Peptide (0.8-3.85),"week 4, 8 mg BID",2.66
same,IA2 Ab (Islet cell Ab Screen) (<0.8),"week 4, 8 mg BID",43.8
same,Insulin (2-19.6),"week 4, 8 mg BID",17.1
same,Insulin Auto Ab (<0.4),"week 4, 8 mg BID",7.2
same,C-Peptide (0.8-3.85),"week 9, 8 mg BID",1.5
same,HgbA1C,"week 9, 8 mg BID",7.2
same,Insulin (2-19.6),"week 9, 8 mg BID",7.8
same,C-Peptide (0.8-3.85),"week 10, 8 mg BID",4.7
same,IA2 Ab (Islet cell Ab Screen) (<0.8),"week 10, 8 mg BID",>50
same,Insulin (2-19.6),"week 10, 8 mg BID",34.5
same,Insulin Auto Ab (<0.4),"week 10, 8 mg BID",64
same,C-Peptide (0.8-3.85),"week 13, 8 mg BID",1.43
same,Glucose,"week 13, 8 mg BID",104
same,IA2 Ab (Islet cell Ab Screen) (<0.8),"week 13, 8 mg BID",46.2
same,Insulin Auto Ab (<0.4),"week 13, 8 mg BID",6.1
same,Islet Cell Ab Titers,"week 13, 8 mg BID",320
same,C-Peptide (0.8-3.85),[1],1.79
same,GAD-65 (<5),[1],<5
same,Glucose,[1],126
same,HgbA1C,[1],6.1
same,IA2 Ab (Islet cell Ab Screen) (<0.8),[1],37.7
same,Insulin (2-19.6),[1],12
same,Insulin Auto Ab (<0.4),[1],6.6
same,Islet Cell Ab Titers,[1],80
same,Glucose,[2],210
same,HgbA1C,[2],6.1
same,Insulin (2-19.6),[2],24.8
same,Insulin Auto Ab (<0.4),[2],4
same,Islet Cell Ab Titers,[2],negative
same,Insulin Auto Ab (<0.4),[3],5.3
same,Islet Cell Ab Titers,[3],20
same,C-Peptide (0.8-3.85),[4],2.19
same,GAD-65 (<5),[4],<5
same,Glucose,[4],93
same,IA2 Ab (Islet cell Ab Screen) (<0.8),[4],47.3
same,Insulin (2-19.6),[4],12
same,Insulin Auto Ab (<0.4),[4],5
same,Islet Cell Ab Titers,[4],negative
same,C-Peptide (0.8-3.85),[5],1.34
same,Glucose,[5],85
same,HgbA1C,[5],6.2
same,IA2 Ab (Islet cell Ab Screen) (<0.8),[5],47.7
same,Insulin (2-19.6),[5],5.4
same,Insulin Auto Ab (<0.4),[5],4.6
same,Islet Cell Ab Titers,[5],20
same,C-Peptide (0.8-3.85),[6],2.74
same,GAD-65 (<5),[6],<5
same,Glucose,[6],143
same,HgbA1C,[6],6.3
same,IA2 Ab (Islet cell Ab Screen) (<0.8),[6],43.8
same,Insulin (2-19.6),[6],34.3
same,Insulin Auto Ab (<0.4),[6],4.2
same,C-Peptide (0.8-3.85),[7],3.17
same,IA2 Ab (Islet cell Ab Screen) (<0.8),[7],46.5
same,Insulin (2-19.6),[7],31.1
same,Insulin Auto Ab (<0.4),[7],2.4
same,Islet Cell Ab Titers,[7],20
same,HgbA1C,[8],6.9
same,IA2 Ab (Islet cell Ab Screen) (<0.8),[8],17
same,Insulin Auto Ab (<0.4),[8],2.1
same,Islet Cell Ab Titers,[8],negative
same,C-Peptide (0.8-3.85),[9],2.73
same,HgbA1C,[9],6.5
same,IA2 Ab (Islet cell Ab Screen) (<0.8),[9],35.7
same,Insulin (2-19.6),[9],25
same,Insulin Auto Ab (<0.4),[9],0.9
same,Islet Cell Ab Titers,[9],negative
same,C-Peptide (0.8-3.85),[10],2.14
same,GAD-65 (<5),[10],66
same,Glucose,[10],97
same,HgbA1C,[10],6.5
same,IA2 Ab (Islet cell Ab Screen) (<0.8),[10],30
same,Insulin (2-19.6),[10],14.8
same,Insulin Auto Ab (<0.4),[10],0.8
same,Islet Cell Ab Titers,[10],negative
same,C-Peptide (0.8-3.85),[11],5.21
same,GAD-65 (<5),[11],70
same,Glucose,[11],168
same,HgbA1C,[11],6.8
same,IA2 Ab (Islet cell Ab Screen) (<0.8),[11],25.9
same,Insulin (2-19.6),[11],47.3
same,Insulin Auto Ab (<0.4),[11],1
same,Islet Cell Ab Titers,[11],negative
same,C-Peptide (0.8-3.85),[12],4.3
same,GAD-65 (<5),[12],15
same,Glucose,[12],160
same,HgbA1C,[12],6.2
same,IA2 Ab (Islet cell Ab Screen) (<0.8),[12],39.4
same,Insulin (2-19.6),[12],37.2
same,Insulin Auto Ab (<0.4),[12],0.9
same,Islet Cell Ab Titers,[12],negative
same,C-Peptide (0.8-3.85),[13],1.38
same,GAD-65 (<5),[13],7
same,HgbA1C,[13],6.5
same,IA2 Ab (Islet cell Ab Screen) (<0.8),[13],38.8
same,Insulin (2-19.6),[13],7.7
same,Insulin Auto Ab (<0.4),[13],0.9
same,Islet Cell Ab Titers,[13],negative
same,C-Peptide (0.8-3.85),[14],1.22
same,GAD-65 (<5),[14],<5
same,Glucose,[14],112
same,HgbA1C,[14],6.3
same,IA2 Ab (Islet cell Ab Screen) (<0.8),[14],39.4
same,Insulin (2-19.6),[14],6.4
same,Insulin Auto Ab (<0.4),[14],1.7
same,Islet Cell Ab Titers,[14],negative
same,C-Peptide (0.8-3.85),[15],1.33
same,GAD-65 (<5),[15],<5
same,Glucose,[15],113
same,HgbA1C,[15],6.2
same,IA2 Ab (Islet cell Ab Screen) (<0.8),[15],39.2
same,Insulin (2-19.6),[15],6.6
same,Insulin Auto Ab (<0.4),[15],0.7
same,Islet Cell Ab Titers,[15],negative
same,C-Peptide (0.8-3.85),[16],1.61
same,GAD-65 (<5),[16],<5
same,Glucose,[16],85
same,HgbA1C,[16],6.4
same,IA2 Ab (Islet cell Ab Screen) (<0.8),[16],44.5
same,Insulin (2-19.6),[16],5.6
same,Insulin Auto Ab (<0.4),[16],0.5
same,Islet Cell Ab Titers,[16],negative
same,C-Peptide (0.8-3.85),[17],2.81
same,GAD-65 (<5),[17],<5
same,Glucose,[17],230
same,HgbA1C,[17],6.9
same,IA2 Ab (Islet cell Ab Screen) (<0.8),[17],46
same,Insulin (2-19.6),[17],24.1
same,Insulin Auto Ab (<0.4),[17],0.5
same,Islet Cell Ab Titers,[17],negative
same,C-Peptide (0.8-3.85),[18],1.68
same,GAD-65 (<5),[18],105
same,Glucose,[18],278
same,HgbA1C,[18],8.1
same,IA2 Ab (Islet cell Ab Screen) (<0.8),[18],6.5
same,Insulin (2-19.6),[18],6.1
same,Insulin Auto Ab (<0.4),[18],<0.4
same,Islet Cell Ab Titers,[18],negative
same,C-Peptide (0.8-3.85),[19],2.88
same,GAD-65 (<5),[19],131
same,Glucose,[19],148
same,HgbA1C,[19],7.8
same,IA2 Ab (Islet cell Ab Screen) (<0.8),[19],13.1
same,Insulin (2-19.6),[19],47.8
same,Insulin Auto Ab (<0.4),[19],<0.4
same,Islet Cell Ab Titers,[19],negative
same,C-Peptide (0.8-3.85),[20],2.36
same,GAD-65 (<5),[20],48
same,Glucose,[20],148
same,HgbA1C,[20],7.1
same,IA2 Ab (Islet cell Ab Screen) (<0.8),[20],25.6
same,Insulin (2-19.6),[20],33.7
same,Insulin Auto Ab (<0.4),[20],0.5
same,Islet Cell Ab Titers,[20],negative
same,C-Peptide (0.8-3.85),[21],1.41
same,GAD-65 (<5),[21],24
same,Glucose,[21],170
same,HgbA1C,[21],6.9
same,IA2 Ab (Islet cell Ab Screen) (<0.8),[21],26.5
same,Insulin (2-19.6),[21],14.3
same,Insulin Auto Ab (<0.4),[21],0.7
same,Islet Cell Ab Titers,[21],20
